Results from US9149476B2, “Thiochromene derivatives as HIF hydroxylase inhibitors” (FibroGen, Inc., priority 2008, dated 2015).
Where a name gives a salt, the structure may show the parent alone.

Molecular target: T1, HIF-PH2 (EGLN1) (Homo sapiens, UniProt Q9GZT9)
T1 construct: made in house; host or cells: insect Hi5 cells
Experiment: HIF-PH assay (14CO2 capture, peptide-dependent turnover)
Format: biochemical
Details: for inhibition at 50 µM: compound concentration 50 μM; for inhibition at 200 µM: compound concentration 200 μM; for inhibition at 12.5 µM: compound concentration 12.5 μM; for inhibition at 67 µM: compound concentration 67 μM
Source text: Ketoglutaric acid α-[1-^14C]-sodium salt, alpha-ketoglutaric acid sodium salt, and HPLC purified peptide may be obtained from commercial sources, e.g., Perkin-Elmer (Wellesley Mass.), Sigma-Aldrich, and SynPep Corp. (Dublin Calif.), respectively. Peptides for use in the assay may be fragments of HIFα as described above or as disclosed in International Publication WO 2005/118836, incorporated by reference herein. For example, a HIF peptide for use in the HIF-PH assay is [methoxycoumarin]-DLDLEALAPYIPADDDFQL-amide (SEQ ID NO:2). HIF-PH, e.g., HIF-PH2 (EGLN1), can be expressed in, e.g., insect Hi5 cells, and partially purified, e.g., through a SP ion exchange chromatography column. Enzyme activity is determined by capturing ^14CO2 using an assay described by Kivirikko and Myllyla (1982, Methods Enzymol. 82:245-304). Assay reactions contain 50 mM HEPES (pH 7.4), 100 μM α-ketoglutaric acid sodium salt, 0.30 μCi/mL ketoglutaric acid α-[1-^14C]-sodium salt, 40 μM FeSO4, 1 mM ascorbate, 1541.8 units/mL Catalase, with or without 50 μM peptide substrate and various concentrations of compound of the invention. Reactions are initiated by addition of HIF-PH enzyme.
The peptide-dependent percent turnover is calculated by subtracting percent turnover in the absence of peptide from percent turnover in the presence of substrate peptide. Percent inhibition and IC50 are calculated using peptide-dependent percent turnover at given inhibitor concentrations. Calculation of IC50 values for each inhibitor is conducted using GraFit software (Erithacus Software Ltd., Surrey UK).
Representative compounds of the invention were analyzed using the HIF-PH assay described above. Table 1 presents enzyme inhibition data for exemplary compounds against HIF-PH2, a representative HIF prolyl hydroxylase. By inhibiting HIF prolyl hydroxylase, compounds of the invention stabilize HIFα, which then combines with HIFβ to form an active transcription factor that increases expression of various genes involved in numerous beneficial cellular processes.

T1 sequence (Q9GZT9 whole entry): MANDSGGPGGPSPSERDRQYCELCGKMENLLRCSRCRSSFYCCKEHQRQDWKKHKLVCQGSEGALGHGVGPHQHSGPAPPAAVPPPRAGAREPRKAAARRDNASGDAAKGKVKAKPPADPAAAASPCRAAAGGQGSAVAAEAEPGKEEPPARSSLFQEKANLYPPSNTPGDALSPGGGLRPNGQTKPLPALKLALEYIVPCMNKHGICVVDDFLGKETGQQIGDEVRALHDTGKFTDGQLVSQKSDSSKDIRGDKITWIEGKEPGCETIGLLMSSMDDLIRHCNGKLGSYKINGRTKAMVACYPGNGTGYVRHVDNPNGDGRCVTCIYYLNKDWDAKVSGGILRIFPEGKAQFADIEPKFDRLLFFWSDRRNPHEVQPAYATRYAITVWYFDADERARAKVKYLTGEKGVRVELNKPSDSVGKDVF

| Structure (SMILES) | inhibition at 50 µM | inhibition at 67 µM | further results |
| --- | --- | --- | --- |
| COc1ccc2c(O)c(C(=O)NCC(=O)O)c(=O)sc2c1 [Example 1, [(4-Hydroxy-7-methoxy-2-oxo-2H-thiochromene-3-carbonyl)-amino]-acetic acid] | 97.3% |  |  |
| COc1cc2sc(=O)c(C(=O)NCC(=O)O)c(O)c2cc1OC [Example 2, [(4-Hydroxy-6,7-dimethoxy-2-oxo-2H-thiochromene-3-carbonyl)-amino]-acetic acid] |  |  | inhibition at 200 µM: 99.4% |
| O=C(O)CNC(=O)c1c(O)c2ccccc2sc1=O [Example 3, [(4-Hydroxy-2-oxo-2H-thiochromene-3-carbonyl)-amino]-acetic acid] |  |  | inhibition at 200 µM: 99.2% |
| O=C(O)CNC(=O)c1c(O)c2cc(F)ccc2sc1=O [Example 4, [(6-Fluoro-4-hydroxy-2-oxo-2H-thiochromene-3-carbonyl)-amino]-acetic acid] |  |  | inhibition at 200 µM: 100% |
| O=C(O)CNC(=O)c1c(O)c2ccc(Br)cc2sc1=O [Example 5, [(7-bromo-4-hydroxy-2-oxo-2H-thiochromene-3-carbonyl)-amino]-acetic acid] |  |  | inhibition at 12.5 µM: 97.6% |
| Cc1ccc2c(O)c(C(=O)NCC(=O)O)c(=O)sc2c1 [Example 6, [(4-Hydroxy-7-methyl-2-oxo-2H-thiochromene-3-carbonyl)-amino]-acetic acid] |  |  | inhibition at 12.5 µM: 94.5% |
| COc1ccc(-c2ccc3c(O)c(C(=O)NCC(=O)O)c(=O)sc3c2)cc1 [Example 7, {[4-Hydroxy-7-(4-methoxy-phenyl)-2-oxo-2H-thiochromene-3-carbonyl]-amino}-acetic acid] |  |  | inhibition at 12.5 µM: 98.7% |
| COc1cccc(-c2ccc3c(O)c(C(=O)NCC(=O)O)c(=O)sc3c2)c1 [Example 8, {[4-Hydroxy-7-(3-methoxy-phenyl)-2-oxo-2H-thiochromene-3-carbonyl]-amino}-acetic acid] | 97.5% |  |  |
| COc1ccccc1-c1ccc2c(O)c(C(=O)NCC(=O)O)c(=O)sc2c1 [Example 9, {[4-Hydroxy-7-(2-methoxy-phenyl)-2-oxo-2H-thiochromene-3-carbonyl]-amino}-acetic acid] | 97.2% |  |  |
| O=C(O)CNC(=O)c1c(O)c2ccc(-c3cc(Cl)cc(Cl)c3)cc2sc1=O [Example 10, {[7-(3,5-Dichloro-phenyl)-4-hydroxy-2-oxo-2H-thiochromene-3-carbonyl]-amino}-acetic acid] | 96.7% |  |  |
| O=C(O)CNC(=O)c1c(O)c2ccc(-c3ccc(C(F)(F)F)cc3)cc2sc1=O [Example 11, {[4-Hydroxy-2-oxo-7-(4-trifluoromethyl-phenyl)-2H-thiochromene-3-carbonyl]-amino}-acetic acid] | 95.8% |  |  |
| O=C(O)CNC(=O)c1c(O)c2ccc(-c3ccccc3)cc2sc1=O [Example 12, [(4-Hydroxy-2-oxo-7-phenyl-2H-thiochromene-3-carbonyl)-amino]-acetic acid] | 96.8% |  |  |
| O=C(O)CNC(=O)c1c(O)c2ccc(-c3ccc(F)cc3)cc2sc1=O [Example 13, {[7-(4-Fluoro-phenyl)-4-hydroxy-2-oxo-2H-thiochromene-3-carbonyl]-amino}-acetic acid] | 99.7% |  |  |
| O=C(O)CNC(=O)c1c(O)c2ccc(-c3cncnc3)cc2sc1=O [Example 14, [(4-Hydroxy-2-oxo-7-pyrimidin-5-yl-2H-thiochromene-3-carbonyl)-amino]-acetic acid] | 99.5% |  |  |
| O=C(O)CNC(=O)c1c(O)c2ccc(F)cc2sc1=O [Example 21, [(7-Fluoro-4-hydroxy-2-oxo-2H-thiochromene-3-carbonyl)-amino]-acetic acid] |  |  | inhibition at 12.5 µM: 91.1% |
| CCCCOc1ccc2c(O)c(C(=O)NCC(=O)O)c(=O)sc2c1 [Example 26, [(7-Butoxy-4-hydroxy-2-oxo-2H-thiochromene-3-carbonyl)-amino]-acetic acid] |  |  | inhibition at 12.5 µM: 96.2% |

Second part, led by results:

| inhibition at 50 µM | inhibition at 67 µM | Structure (SMILES) | further results |
| --- | --- | --- | --- |
| 95.2% |  | O=C(O)CNC(=O)c1c(O)c2ccc(-c3cccnc3)cc2sc1=O [Example 15, [(4-Hydroxy-2-oxo-7-pyridin-3-yl-2H-thiochromene-3-carbonyl)-amino]-acetic acid, sodium salt] |  |
| 95.4% |  | O=C(O)CNC(=O)c1c(O)c2ccc(-c3cncc(F)c3)cc2sc1=O [Example 16, {[7-(5-Fluoro-pyridin-3-yl)-4-hydroxy-2-oxo-2H-thiochromene-3-carbonyl]-amino}-acetic acid] |  |
| 92.8% |  | O=C(O)CNC(=O)c1c(O)c2ccc(-c3ccc(F)c(Cl)c3)cc2sc1=O [Example 17, {[7-(3-Chloro-4-fluoro-phenyl)-4-hydroxy-2-oxo-2H-thiochromene-3-carbonyl]-amino}-acetic acid] |  |
| 87.9% |  | O=C(O)CNC(=O)c1c(O)c2ccc(-c3ccc4ccccc4c3)cc2sc1=O [Example 18, [(4-Hydroxy-7-naphthalen-2-yl-2-oxo-2H-thiochromene-3-carbonyl)-amino]-acetic acid] |  |
| 92.1% |  | Cc1ccc(-c2ccc3c(O)c(C(=O)NCC(=O)O)c(=O)sc3c2)cc1 [Example 19, [(4-Hydroxy-2-oxo-7-p-tolyl-2H-thiochromene-3-carbonyl)-amino]-acetic acid] |  |
| 95.6% |  | Cc1cc(Cl)cc2c(O)c(C(=O)NCC(=O)O)c(=O)sc12 [Example 22, [(6-Chloro-4-hydroxy-8-methyl-2-oxo-2H-thiochromene-3-carbonyl)-amino]-acetic acid] |  |
| 97.5% |  | Cc1cccc2c(O)c(C(=O)NCC(=O)O)c(=O)sc12 [Example 23, [(4-Hydroxy-8-methyl-2-oxo-2H-thiochromene-3-carbonyl)-amino]-acetic acid] |  |
|  | 100% | O=C(O)CNC(=O)c1c(O)c2cc(Br)ccc2sc1=O [Example 27, [(6-Bromo-4-hydroxy-2-oxo-2H-thiochromene-3-carbonyl)-amino]-acetic acid] |  |
|  | 98% | C[C@H](NC(=O)c1c(O)c2cc(Br)ccc2sc1=O)C(=O)O [Example 28, 2-(S)-[(6-Bromo-4-hydroxy-2-oxo-2H-thiochromene-3-carbonyl)-amino]-propionic acid] |  |
|  | 96.4% | O=C(O)CNC(=O)c1c(O)c2ccc(-c3cc(C(F)(F)F)cc(C(F)(F)F)c3)cc2sc1=O [Example 29, {[7-(3,5-Bis-trifluoromethyl-phenyl)-4-hydroxy-2-oxo-2H-thiochromene-3-carbonyl]-amino}-acetic acid] |  |
|  | 99.1% | O=C(O)CNC(=O)c1c(O)c2ccc(-c3cccc(F)c3)cc2sc1=O [Example 30, {[7-(3-Fluoro-phenyl)-4-hydroxy-2-oxo-2H-thiochromene-3-carbonyl]-amino}-acetic acid] |  |
|  | 98.4% | C[C@H](NC(=O)c1c(O)c2ccc(-c3cccc(F)c3)cc2sc1=O)C(=O)O [Example 31, 2-(S)-{[7-(3-Fluoro-phenyl)-4-hydroxy-2-oxo-2H-thiochromene-3-carbonyl]-amino}-propionic acid] |  |
|  | 93.2% | O=C(O)CNC(=O)c1c(O)c2ccc(-c3ccccc3C(F)(F)F)cc2sc1=O [Example 32, {[4-Hydroxy-2-oxo-7-(2-trifluoromethyl-phenyl)-2H-thiochromene-3-carbonyl]-amino}-acetic acid] |  |
|  | 99.4% | O=C(O)CNC(=O)c1c(O)c2cc(-c3cc(C(F)(F)F)cc(C(F)(F)F)c3)ccc2sc1=O [Example 33, {[6-(3,5-Bis-trifluoromethyl-phenyl)-4-hydroxy-2-oxo-2H-thiochromene-3-carbonyl]-amino}-acetic acid] |  |
|  | 99.8% | O=C(O)CNC(=O)c1c(O)c2cc(-c3ccccc3C(F)(F)F)ccc2sc1=O [Example 34, {[4-Hydroxy-2-oxo-6-(2-trifluoromethyl-phenyl)-2H-thiochromene-3-carbonyl]-amino}-acetic acid] |  |
|  | 99.1% | COc1ccc(-c2ccc3sc(=O)c(C(=O)NCC(=O)O)c(O)c3c2)cc1 [Example 35, {[4-Hydroxy-6-(4-methoxy-phenyl)-2-oxo-2H-thiochromene-3-carbonyl]-amino}-acetic acid] |  |
|  | 99.7% | O=C(O)CNC(=O)c1c(O)c2cc(-c3ccccc3Cl)ccc2sc1=O [Example 36, {[6-(2-Chloro-phenyl)-4-hydroxy-2-oxo-2H-thiochromene-3-carbonyl]-amino}-acetic acid] |  |
|  | 98.4% | O=C(O)CNC(=O)c1c(O)c2cc(-c3cccc(F)c3)ccc2sc1=O [Example 37, {[6-(3-Fluoro-phenyl)-4-hydroxy-2-oxo-2H-thiochromene-3-carbonyl]-amino}-acetic acid] |  |
|  | 96.6% | O=C(O)CNC(=O)c1c(O)c2cc(-c3ccc(F)cc3)ccc2sc1=O [Example 38, {[6-(4-Fluoro-phenyl)-4-hydroxy-2-oxo-2H-thiochromene-3-carbonyl]-amino}-acetic acid] |  |
|  | 94.7% | COc1ccccc1-c1ccc2sc(=O)c(C(=O)NCC(=O)O)c(O)c2c1 [Example 39, {[4-Hydroxy-6-(2-methoxy-phenyl)-2-oxo-2H-thiochromene-3-carbonyl]-amino}-acetic acid] |  |
